Key:
[1] = assay type: physicochemical; conditions: pH 2
Protocol: It was stable at pH of 4.7 and pH of 6.8 up to 70° C. for 3 days.

[2] = tested on: DSS (Dahl Salt Sensitive) rats; assay: In vivo efficacy study on blood pressure in DSS rats (telemetry; systolic and diastolic pressure); conditions: for Systolic blood pressure, mean / Diastolic blood pressure, Mean: Compound I-1 50 mg/kg; for Systolic blood pressure, mean: alone or combined, QD PO
Excerpt: An in vivo study ascertains the effects on blood pressure in DSS (Dahl Salt Sensitive) rats. The DSS hypertensive rat model is a model of hypertension that is sensitive to dietary salt (NaCl), see for example Rapp (1982) Hypertension 4:753-763 and Hegde et al. BMC Pharmacology 2011, 11 (Suppl 1):P33. Under pentobarbital sodium anesthesia, a DSI (Data Sciences International, St. Paul, Minn.) telemetric probe is implanted. The transducer is inserted into abdominal aorta, and the transmitter is implanted into abdominal cavity. During postoperative recovery period, close observation is performed. Analgesics (Buprenorphine, 0.1-0.5 mg/kg, once per day for 1 day) and preventive antibiotics (Cephradine, 10˜15 mg/kg, ip., once per day for 3 days) are administered on a daily basis. Before the treatment period, all animals are fed with 8% high salt food for about 2 weeks. Test compound is formulated in 0.5% HPC and administered by oral gavage. Five groups of animals are treated as follows: 1. Vehicle, 0.5% HPC, QD, PO, N=5 2. Valsartan, 30 mg/kg, QD, PO, N=5 3. Compound I-1, 50 mg/kg, QD, PO, N=6 4. Compound I-1, 15 mg/kg+Valsartan, 30 mg/kg, QD, PO, N=5 5. Compound I-1, 50 mg/kg+Valsartan, 30 mg/kg, QD, PO, N=5 N is the number of animals. The mean arterial pressure, systolic pressure, diastolic pressure and heart rate after administration for each animal are measured. Interim results obtained before full study completion are shown in Tables 18 and 19 (full cohort of animals beyond day 7 were reduced due to some loss). Mean measurements of the systolic (Table 18) and diastolic (Table 19) blood pressures, for the baseline day prior to first treatment and for treatment days 1 and 7 only, in each treatment group, are shown. Measurements obtained every other hour only are shown.

[3] = Hygroscopicity, weight gain at 90% RH; assay type: physicochemical; conditions: after exposure to 90% RH
Excerpt: The weight gain of compound I-1 after exposure to 90% RH (relatively humidity) was 0.34%, while that of AHU377 under the same conditions was 3.4%. […] On the other hand, AHU377 is a wax-like solid, which needs to be properly processed before further pharmaceutical processing such as weighing, dispensing and filling.

Structure (SMILES): CCOC(=O)[C@H](C)C[C@@H](Cc1ccc(-c2ccccc2)cc1)NC(=O)CCC(=O)N[C@@H](CC(C)C)C(=O)O [Compound I-1, (4-(((2S,4R)-1-([1,1′-biphenyl]-4-yl)-5-ethoxy-4-methyl-5-oxopentan-2-yl)amino)-4-oxobutanoyl)-L-leucine]
- degradation in solution ([1]; 1 day): 18.27%
- solution stability under acidic conditions [1]: unstable
- Systolic blood pressure, mean ([2]; Baseline day prior to first treatment, Hour 1, groups Valsartan 30 mg/kg): 163.63
- Systolic blood pressure, mean ([2]; Baseline day prior to first treatment, Hour 3, groups Valsartan 30 mg/kg): 159.24
- Systolic blood pressure, mean ([2]; Baseline day prior to first treatment, Hour 5, groups Valsartan 30 mg/kg): 155.66
- Systolic blood pressure, mean ([2]; Baseline day prior to first treatment, Hour 7, groups Valsartan 30 mg/kg): 154.92
- Systolic blood pressure, mean ([2]; Baseline day prior to first treatment, Hour 9, groups Valsartan 30 mg/kg): 157.92
- Systolic blood pressure, mean ([2]; Baseline day prior to first treatment, Hour 11, groups Valsartan 30 mg/kg): 162.87
- Systolic blood pressure, mean ([2]; Baseline day prior to first treatment, Hour 13, groups Valsartan 30 mg/kg): 167.91
- Systolic blood pressure, mean ([2]; Baseline day prior to first treatment, Hour 15, groups Valsartan 30 mg/kg): 167.33
- Systolic blood pressure, mean ([2]; Baseline day prior to first treatment, Hour 17, groups Valsartan 30 mg/kg): 167.09
- Systolic blood pressure, mean ([2]; Baseline day prior to first treatment, Hour 19, groups Valsartan 30 mg/kg): 169.48
- Systolic blood pressure, mean ([2]; Baseline day prior to first treatment, Hour 21, groups Valsartan 30 mg/kg): 169.41
- Systolic blood pressure, mean ([2]; Baseline day prior to first treatment, Hour 23, groups Valsartan 30 mg/kg): 161.71
- Diastolic blood pressure, Mean ([2]; Baseline day, Hour 1): 111.95
- Diastolic blood pressure, Mean ([2]; Baseline day, Hour 3): 107.76
- Diastolic blood pressure, Mean ([2]; Baseline day, Hour 5): 104.17
- Diastolic blood pressure, Mean ([2]; Baseline day, Hour 7): 102.18
- Diastolic blood pressure, Mean ([2]; Baseline day, Hour 9): 105.63
- Diastolic blood pressure, Mean ([2]; Baseline day, Hour 11): 111.89
- Diastolic blood pressure, Mean ([2]; Baseline day, Hour 13): 116.86
- Diastolic blood pressure, Mean ([2]; Baseline day, Hour 15): 115.85
- Diastolic blood pressure, Mean ([2]; Baseline day, Hour 17): 116.42
- Diastolic blood pressure, Mean ([2]; Baseline day, Hour 19): 117.36
- Diastolic blood pressure, Mean ([2]; Baseline day, Hour 21): 116.95
- Diastolic blood pressure, Mean ([2]; Baseline day, Hour 23): 109.93
- Diastolic blood pressure, Mean ([2]; Dosing day 1, Hour 1): 115.05
- Diastolic blood pressure, Mean ([2]; Dosing day 1, Hour 3): 106.99
- Diastolic blood pressure, Mean ([2]; Dosing day 1, Hour 5): 104.66
- Diastolic blood pressure, Mean ([2]; Dosing day 1, Hour 7): 106.82
- Diastolic blood pressure, Mean ([2]; Dosing day 1, Hour 9): 108.88
- Diastolic blood pressure, Mean ([2]; Dosing day 1, Hour 11): 114.90
- Diastolic blood pressure, Mean ([2]; Dosing day 1, Hour 13): 116.00
- Diastolic blood pressure, Mean ([2]; Dosing day 1, Hour 15): 117.42
- Diastolic blood pressure, Mean ([2]; Dosing day 1, Hour 17): 118.42
- Diastolic blood pressure, Mean ([2]; Dosing day 1, Hour 19): 122.21
- Diastolic blood pressure, Mean ([2]; Dosing day 1, Hour 21): 115.68
- Diastolic blood pressure, Mean ([2]; Dosing day 1, Hour 23): 111.09
- Diastolic blood pressure, Mean ([2]; Dosing day 7, Hour 1): 118.61
- Diastolic blood pressure, Mean ([2]; Dosing day 7, Hour 3): 109.11
- Diastolic blood pressure, Mean ([2]; Dosing day 7, Hour 5): 108.96
- Diastolic blood pressure, Mean ([2]; Dosing day 7, Hour 7): 114.22
- Diastolic blood pressure, Mean ([2]; Dosing day 7, Hour 9): 126.44
- Diastolic blood pressure, Mean ([2]; Dosing day 7, Hour 11): 129.02
- Diastolic blood pressure, Mean ([2]; Dosing day 7, Hour 13): 131.34
- Diastolic blood pressure, Mean ([2]; Dosing day 7, Hour 15): 126.20
- Diastolic blood pressure, Mean ([2]; Dosing day 7, Hour 17): 127.80
- Diastolic blood pressure, Mean ([2]; Dosing day 7, Hour 19): 124.88
- Diastolic blood pressure, Mean ([2]; Dosing day 7, Hour 21): 116.93
- Diastolic blood pressure, Mean ([2]; Dosing day 7, Hour 23): 120.18
- effect on blood pressure ([2]; DSS rats, as compared to animals treated with vehicle alone, interim results): trend for lower blood pressure
- Systolic blood pressure, mean ([2]; Dosing day 1, Hour 1, Valsartan 30 mg/kg): 164.94
- Systolic blood pressure, mean ([2]; Dosing day 1, Hour 3, Valsartan 30 mg/kg): 152.46
- Systolic blood pressure, mean ([2]; Dosing day 1, Hour 5, Valsartan 30 mg/kg): 155.79
- Systolic blood pressure, mean ([2]; Dosing day 1, Hour 7, Valsartan 30 mg/kg): 159.33
- Systolic blood pressure, mean ([2]; Dosing day 1, Hour 9, Valsartan 30 mg/kg): 166.16
- Systolic blood pressure, mean ([2]; Dosing day 1, Hour 11, Valsartan 30 mg/kg): 168.46
- Systolic blood pressure, mean ([2]; Dosing day 1, Hour 13, Valsartan 30 mg/kg): 169.35
- Systolic blood pressure, mean ([2]; Dosing day 1, Hour 15, Valsartan 30 mg/kg): 169.78
- Systolic blood pressure, mean ([2]; Dosing day 1, Hour 17, Valsartan 30 mg/kg): 174.28
- Systolic blood pressure, mean ([2]; Dosing day 1, Hour 19, Valsartan 30 mg/kg): 166.11
- Systolic blood pressure, mean ([2]; Dosing day 1, Hour 21, Valsartan 30 mg/kg): 162.24
- Systolic blood pressure, mean ([2]; Dosing day 1, Hour 23, Valsartan 30 mg/kg): 158.31
- Systolic blood pressure, mean ([2]; Dosing day 7, Hour 1, Valsartan 30 mg/kg): 167.78
- Systolic blood pressure, mean ([2]; Dosing day 7, Hour 3, Valsartan 30 mg/kg): 158.75
- Systolic blood pressure, mean ([2]; Dosing day 7, Hour 5, Valsartan 30 mg/kg): 156.95
- Systolic blood pressure, mean ([2]; Dosing day 7, Hour 7, Valsartan 30 mg/kg): 165.23
- Systolic blood pressure, mean ([2]; Dosing day 7, Hour 9, Valsartan 30 mg/kg): 176.77
- Systolic blood pressure, mean ([2]; Dosing day 7, Hour 11, Valsartan 30 mg/kg): 182.56
- Systolic blood pressure, mean ([2]; Dosing day 7, Hour 13, Valsartan 30 mg/kg): 182.29
- Systolic blood pressure, mean ([2]; Dosing day 7, Hour 15, Valsartan 30 mg/kg): 175.64
- Systolic blood pressure, mean ([2]; Dosing day 7, Hour 17, Valsartan 30 mg/kg): 179.39
- Systolic blood pressure, mean ([2]; Dosing day 7, Hour 19, Valsartan 30 mg/kg): 175.46
- Systolic blood pressure, mean ([2]; Dosing day 7, Hour 21, Valsartan 30 mg/kg): 165.83
- Systolic blood pressure, mean ([2]; Dosing day 7, Hour 23, Valsartan 30 mg/kg): 170.13
- weight gain (hygroscopicity) [3]: 0.34%
